# Tests used:
# Test in all cases: ≥ marks a high value that may be exact or a test limit, other limits are often not marked, values filed in µg/mL are converted to µM
# [1] = system: Streptococcus pyogenes M1T1 5448
# Escherichia coli BL21 = system: Escherichia coli BL21
# [2] = system: Pseudomonas aeruginosa PAO1
# [3] = system: Bacillus subtilis ATCC 6051
# [4] = system: Escherichia coli ATCC 25922
# [5] = system: Staphylococcus aureus VRSA1
# [6] = system: Staphylococcus aureus ATCC 29213
# [7] = system: Streptococcus pneumoniae ATCC 700677
# [8] = system: Acinetobacter baumannii ATCC 19606
# [9] = system: Candida tropicalis ATCC 750
# [10] = system: Klebsiella pneumoniae ATCC 700603
# [11] = system: Bacillus megaterium ATCC 13632
# [12] = system: Enterococcus faecium ATCC 35667
# [13] = system: Candida albicans ATCC 90028
# [14] = system: Staphylococcus aureus ATCC 43300
# [15] = system: Cryptococcus neoformans ATCC 208821
# [16] = system: Pseudomonas aeruginosa ATCC 27853
# [17] = system: Candida albicans ATCC 10231
# [18] = system: Enterococcus faecium E007
# [19] = system: Klebsiella pneumoniae WGLW2
# [20] = system: Acinetobacter baumannii ATCC 7978
# [21] = system: Staphylococcus aureus MW2
# [22] = system: Staphylococcus aureus ATCC 29231
# [23] = system: Pseudomonas aeruginosa PA14
# [24] = system: Klebsiella aerogenes ATCC 13048
# [25] = system: Staphylococcus aureus ATCC 25923
# [26] = system: Shigella sonnei ATCC 11060
# Vibrio cholerae O1 Inaba = system: Vibrio cholerae O1 Inaba
# [27] = system: Enterococcus faecalis ATCC 29212
# [28] = system: Salmonella enterica subsp. enterica serovar Typhimurium ATCC 13311
# Escherichia coli O157:H7 = system: Escherichia coli O157:H7
# [29] = system: Staphylococcus epidermidis ATCC 12228
# Acinetobacter baumannii = system: Acinetobacter baumannii
# [30] = system: Listeria monocytogenes 10403s
# [31] = system: Bacillus cereus ATCC 11778
# Escherichia coli W3110 = system: Escherichia coli W3110
# [32] = system: Klebsiella pneumoniae ATCC BAA-1705
smiles,measurement,setting,value
CC[C@H](C)[C@H](NC(=O)[C@H](CCCCN)NC(=O)[C@H](C)NC(=O)[C@H](CCCN=C(N)N)NC(=O)[C@H](CCCCN)NC(=O)CNC(=O)[C@H](CCCCN)NC(=O)[C@H](CCC(=O)O)NC(=O)[C@H](CCC(N)=O)NC(=O)[C@@H](NC(=O)[C@H](CCCCN)NC(=O)[C@H](CCCCN)NC(=O)[C@H](CCCCN)NC(=O)[C@H](CC(C)C)NC(=O)[C@H](CCCN=C(N)N)NC(=O)[C@H](CCC(N)=O)NC(=O)[C@H](Cc1ccccc1)NC(=O)[C@@H](NC(=O)[C@@H](NC(=O)[C@H](CCC(=O)O)NC(=O)[C@H](CCCCN)NC(=O)CNC(=O)[C@H](C)N)[C@@H](C)O)[C@@H](C)CC)[C@@H](C)CC)C(=O)N[C@@H](C)C(=O)N[C@@H](Cc1c[nH]c2ccccc12)C(=O)O [AGKETIFQRLKKKIQEKGKRAKIAW],MIC,[1],0.5 µM
same,MIC,Escherichia coli BL21,1 µM
same,MIC,[2],32 µM
CC[C@H](C)[C@H](N)C(=O)N[C@@H](Cc1ccccc1)C(=O)NCC(=O)N[C@H](C(=O)N[C@H](C(=O)N[C@@H](CC(C)C)C(=O)NCC(=O)N[C@@H](Cc1ccccc1)C(=O)N[C@@H](CC(C)C)C(=O)N[C@@H](CCCCN)C(=O)NCC(=O)N[C@@H](CC(C)C)C(N)=O)[C@@H](C)CC)[C@@H](C)O [IFGTILGFLKGL],MIC,[3],25 µM
same,MIC,[4],100 µM
same,MIC,[5],12.5 µM
same,MIC,[6],12.5 µM
same,MIC,[7],25 µM
same,MIC,[8],100 µM
same,MIC,[9],25 µM
same,MIC,[10],200 µM
same,MIC,[11],12.5 µM
same,MIC,[12],25 µM
same,MIC,[13],≥ 100 µM
same,MIC,[14],12.5 µM
same,MIC,[15],25 µM
same,MIC,[16],> 200 µM
CC[C@H](C)[C@H](NC(=O)[C@H](CCCCN)NC(=O)[C@H](Cc1c[nH]c2ccccc12)NC(=O)[C@@H](N)CC(C)C)C(=O)NCC(=O)N[C@@H](Cc1c[nH]c2ccccc12)C(=O)N[C@@H](CCCCN)C(=O)N[C@H](C(=O)N[C@@H](Cc1c[nH]c2ccccc12)C(=O)N[C@@H](CCCN=C(N)N)C(=O)N[C@H](C(=O)NCC(=O)O)C(C)C)[C@@H](C)CC [LWKIGWKIWRVG],MIC,[17],83 µM
same,MIC,[18],≥ 83 µM
same,MIC,[19],≥ 41.5 µM
same,MIC,[20],20.8 µM
same,MIC,[21],≥ 41.5 µM
same,MIC,[22],≥ 41.5 µM
CC[C@H](C)[C@H](NC(=O)[C@H](CCCCN)NC(=O)[C@H](CCCCN)NC(=O)[C@H](Cc1c[nH]c2ccccc12)NC(=O)[C@@H](NC(=O)[C@H](CCCCN)NC(=O)[C@H](Cc1c[nH]c2ccccc12)NC(=O)[C@@H](N)CC(C)C)[C@@H](C)CC)C(=O)N[C@@H](Cc1c[nH]c2ccccc12)C(=O)N[C@@H](CCCN=C(N)N)C(=O)N[C@H](C(=O)N[C@@H](Cc1c[nH]c2ccccc12)C(=O)N[C@@H](CCCCN)C(=O)N[C@@H](CC(N)=O)C(=O)N[C@@H](Cc1c[nH]c2ccccc12)C(=O)N[C@@H](CCCN=C(N)N)C(=O)O)C(C)C [LWKIWKKIWRVWKNWR],MIC,[18],≥ 55 µM
same,MIC,[23],13.8 µM
same,MIC,[24],13.8 µM
same,MIC,[20],27.5 µM
same,MIC,[22],3.44 µM
CC(C)C[C@H](NC(=O)[C@@H](N)CCCN=C(N)N)C(=O)N[C@@H](Cc1ccccc1)C(=O)N[C@@H](CCCN=C(N)N)C(=O)N[C@@H](CCCN=C(N)N)C(=O)N[C@H](C(=O)N[C@@H](CCCCN)C(=O)N[C@@H](CCCCN)C(=O)N[C@H](C(=O)N[C@@H](C)C(=O)NCC(N)=O)C(C)C)C(C)C [RLFRRVKKVAG],MIC,[25],> 188 µM
same,MIC,[26],≥ 188 µM
same,MIC,[4],> 188 µM
same,MIC,Vibrio cholerae O1 Inaba,≥ 188 µM
same,MIC,[27],> 188 µM
same,MIC,[28],≥ 188 µM
same,MIC,Escherichia coli O157:H7,≥ 188 µM
same,MIC,[29],> 188 µM
same,MIC,Acinetobacter baumannii,≥ 188 µM
same,MIC,[30],≥ 188 µM
same,MIC,[31],≥ 188 µM
same,MIC,[16],> 188 µM
CC[C@H](C)[C@H](NC(=O)[C@H](CCCN=C(N)N)NC(=O)[C@H](CCCN=C(N)N)NC(=O)[C@H](Cc1ccc(O)cc1)NC(=O)[C@H](CCCN=C(N)N)NC(=O)[C@H](CC(C)C)NC(=O)[C@H](CC(C)C)NC(=O)[C@H](CCCCN)NC(=O)[C@H](CC(C)C)NC(=O)CNC(=O)[C@H](Cc1c[nH]c2ccccc12)NC(=O)[C@H](CS)NC(=O)[C@H](C)NC(=O)[C@H](Cc1c[nH]c2ccccc12)NC(=O)[C@H](CCCN=C(N)N)NC(=O)[C@@H](N)Cc1c[nH]c2ccccc12)C(=O)N[C@@H](Cc1ccc(O)cc1)C(=O)O [WRWACWGLKLLRYRRIY],MIC,Escherichia coli W3110,8 µM
same,MIC,[32],≥ 64 µM

# — DBAASP
